# Target: T1, recombinant human PAI-1 (Homo sapiens, UniProt P05121)
# T1 construct: purchased Molecular Innovations, Inc
# Assay: Test Example 1: human PAI-1 inhibitory activity (tPA fluorogenic substrate, pH 7.5 Tris buffer)
# Assay type: biochemical
# Details: Tris buffer
# Protocol: 50 mM Tris, 150 mM NaCl, 10 μg/ml BSA, 0.01% Tween80 (SIGMA-ALDRICH Corporation)
# T1 sequence (P05121 24-402): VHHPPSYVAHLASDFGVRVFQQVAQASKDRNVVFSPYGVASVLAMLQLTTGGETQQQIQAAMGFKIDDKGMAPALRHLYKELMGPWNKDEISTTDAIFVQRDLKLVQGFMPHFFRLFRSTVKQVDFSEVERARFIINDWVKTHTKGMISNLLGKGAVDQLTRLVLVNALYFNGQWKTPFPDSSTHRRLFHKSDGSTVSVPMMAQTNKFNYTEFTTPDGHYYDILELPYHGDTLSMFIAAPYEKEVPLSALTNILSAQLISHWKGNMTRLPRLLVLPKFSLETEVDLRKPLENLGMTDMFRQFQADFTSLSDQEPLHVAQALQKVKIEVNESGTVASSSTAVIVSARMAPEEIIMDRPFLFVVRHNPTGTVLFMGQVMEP
Compound,Inhibition Rate of PAI-1 Activity (%) (Compound Concentration 5 μM),Inhibition Rate of PAI-1 Activity (%) (Compound Concentration 10 μM),Inhibition Rate of PAI-1 Activity (%) (Compound Concentration 25 μM)
CC(C)(C)c1ccc(COc2ccc(-c3ccc4c(c3)OCO4)cc2CC(=O)O)cc1 [Compound 10],32%,65%,>99%
Cc1cc(C)cc(COc2ccc(-c3ccc(OC(F)(F)F)cc3)cc2CC(=O)O)c1 [Compound 11],41%,84%,99%
CC(C)(C)c1ccc(Oc2ccc(-c3ccc(OC(F)(F)F)cc3)cc2C=CC(=O)O)cc1 [Compound 12],92%,94%,–
O=C(O)CCc1cc(-c2ccc(OC(F)(F)F)cc2)ccc1Oc1ccc(C(=O)O)cc1 [Compound 14],–,3%,–
O=C(O)C=Cc1cc(-c2ccc(OC(F)(F)F)cc2)ccc1Oc1ccc(OC(F)(F)F)cc1 [Compound 15],23%,47%,94%
O=C(O)CCc1cc(-c2ccc(OC(F)(F)F)cc2)ccc1Oc1ccc(OC(F)(F)F)cc1 [Compound 16],23%,46%,96%
O=C(O)CCc1cc(-c2ccc(OC(F)(F)F)cc2)ccc1OCc1ccc(F)cc1 [Compound 20],–,10%,53%
O=C(O)CCc1cc(-c2ccc(OC(F)(F)F)cc2)ccc1OCc1ccccc1C(F)(F)F [Compound 21],–,11%,70%
O=C(O)CCc1cc(-c2ccc(OC(F)(F)F)cc2)ccc1OCc1ccc(C(F)(F)F)cc1 [Compound 22],–,13%,80%

# Other lines, results leading:
Inhibition Rate of PAI-1 Activity (%) (Compound Concentration 5 μM),Inhibition Rate of PAI-1 Activity (%) (Compound Concentration 10 μM),Inhibition Rate of PAI-1 Activity (%) (Compound Concentration 25 μM),Compound
–,7%,47%,COc1ccccc1COc1ccc(-c2ccc(OC(F)(F)F)cc2)cc1CCC(=O)O [Compound 23]
–,11%,64%,O=C(O)/C=C/c1cc(-c2ccc(OC(F)(F)F)cc2)ccc1OCc1ccccc1 [Compound 24]
96%,97%,93%,CC(C)(C)c1ccc(COc2ccc(-c3ccc(OC(F)(F)F)cc3)cc2/C=C/C(=O)O)cc1 [Compound 25]
–,9%,25%,CC(C)(C)c1ccc(COc2ccc(-c3cccc(C(=O)O)c3)cc2CCC(=O)O)cc1 [Compound 26]
5%,29%,92%,O=C(O)CCc1cc(-c2ccc(OC(F)(F)F)cc2)ccc1OCc1ccc(Cl)cc1Cl [Compound 27]
21%,56%,88%,O=C(O)CCc1cc(-c2ccc(OC(F)(F)F)cc2)ccc1OCc1ccc(-c2ccccc2)cc1 [Compound 29]
21%,49%,89%,CC(C)(C)c1ccc(COc2ccc(-c3ccccc3)cc2/C=C/C(=O)O)cc1 [Compound 31]
22%,47%,97%,CC(C)(C)c1ccc(COc2ccc(-c3ccccc3)cc2CCC(=O)O)cc1 [Compound 32]
23%,53%,96%,CC(C)(C)c1ccc(COc2ccc(-c3ccc(F)cc3)cc2/C=C/C(=O)O)cc1 [Compound 33]
24%,53%,99%,CC(C)(C)c1ccc(COc2ccc(-c3ccc(F)cc3)cc2CCC(=O)O)cc1 [Compound 34]
